Experimental findings from patent US8778985B2, “Inhibiting amyloid-beta peptide/rage interaction at the blood-brain barrier” (The University of Rochester, priority 2006, dated 2014) are described below.

For test [1], the system named is RAGE-mediated transport of Aβ40 across the BBB. In words: Arterial vascular brain perfusion: transport of 125I-Aβ40 across the BBB in APPsw+/− mice. The format is in vivo. To be noted: Mus musculus, read-out: inhibition of Aβ transport across the BBB. From the text: The statistical significance of differences is shown. Data are mean±s.e.m., n=3-4 per group.
An arterial vascular brain perfusion technique (LaRue et al., 2004) was used to determine whether FPS2 blocks RAGE-mediated transport of circulating ^125I-labeled Aβ40 across the BBB in 4-6 month old APPsw^+/− mice. We and others have reported that expression of RAGE in brain microvessels in these mice is increased by about 5-fold compared to the littermate controls (Deane et al., 2003; Donahue et al., 2004).

The subject of test [2] is RAGE-transfected CHO cells. In words: Thiobarbituric acid reactive substance (TBARS) generation (Aβ/RAGE-induced oxidant stress) in RAGE-transfected CHO cells. The format is cell-based. To be noted: 1 μM Aβ40; FPS2 at 50 nM or 500 nM.
For another test, the target named is T1, RAGE (Homo sapiens, UniProt Q15109).
T1 construct: expressed in transfected cells; host or cells: Chinese hamster ovary (CHO) cells
In words: 125I-Aβ40 specific binding on RAGE-transfected CHO cells at 4° C., competitive inhibition. The text has this:
Data are mean±s.e.m., n=3 per group.
All three are tertiary amides substituted with a large, hydrophobic hydrocarbon moiety and a monosubstituted aromatic moiety. Linkage to the monosubstituted aromatic is either direct (FPS2) or via an alkyl (FPS1) or heteroaromatic (FPS3) spacer. Two of the compounds also feature a highly electron-poor substituted benzene ring (3-nitro, 4-chloro for FPS1; 3,5-dinitro for FPS2).

The test system of another test is APPsw+/− mice. Put plainly: Thioflavin S-positive amyloid load in brain, chronic treatment of APPsw+/− mice. In kind it is in vivo. To be noted: 1 mg/kg per day i.p. for two months. The protocol: Amyloid load hippocampus and cortex of APPsw^+/− mice treated with vehicle (open bars) or FPS2 (closed bars). FPS2 (1 mg/kg per day), was administered intraperitoneally to mice for two months beginning at the age of 8 months. Values are means±s.e.m, n=5-6 per group.
In the chronic-treated mice, Aβ40 and Aβ42 levels in the hippocampus were reduced by about 85% and 90%, respectively, in the FPS2-treated mice compared to vehicle (FIG. 6A). Similarly, Aβ40 and Aβ42 levels in the cortex were reduced by about 70% and 80%, respectively (FIG. 6B).
Compounds were synthesized in parallel using semiautomated chemical reactions. […] Purity was assessed by reverse-phase gradient HPLC. […] After two months of treatment, (i) the cerebral blood flow response to brain activation (whisker stimulation) was measured and (ii) behavioral tests including operant learning, novel object location (NOL), and novel object recognition (NOR) were performed. After these functional tests, the mice were sacrificed and their brains analyzed for Aβ40, Aβ42, and amyloid levels. • CBF response to brain activation. The CBF response to vibrissal stimulation in anesthetized APPsw^+/− mice was measured by using laser-doppler flowmetry (Transonic Systems, BLF 21 D). […] The time exploring the novel and familiar objects was scored by hand to provide discrimination. • Human Aβ40 and Aβ42. […]

T1 sequence (Q15109 23-404): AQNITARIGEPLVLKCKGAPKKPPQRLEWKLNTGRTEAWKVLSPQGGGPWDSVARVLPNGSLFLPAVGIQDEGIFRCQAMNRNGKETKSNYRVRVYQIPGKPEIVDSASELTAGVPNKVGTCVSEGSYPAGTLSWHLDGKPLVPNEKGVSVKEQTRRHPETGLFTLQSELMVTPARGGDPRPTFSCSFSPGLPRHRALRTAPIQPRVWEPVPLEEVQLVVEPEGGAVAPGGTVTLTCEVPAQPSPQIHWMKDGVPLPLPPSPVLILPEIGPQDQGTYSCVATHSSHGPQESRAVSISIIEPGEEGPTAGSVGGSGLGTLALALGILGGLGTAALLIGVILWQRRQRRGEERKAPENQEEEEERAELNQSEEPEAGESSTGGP

For the compound `CC(CC(=O)NCCCN(C(=O)c1cc([N+](=O)[O-])cc([N+](=O)[O-])c1)c1ccccc1)CC(C)(C)C` (stereo not drawn) [FPS2, 3,5-dinitro-N-phenyl-N-[3-[(3,5,5-trimethyl-1-oxohexyl)amino]propyl]-(9Cl)-benzamide], the inhibition at 4.8 µg/mL in test [1] stood at 100%. In addition, the TBARS generation entry in test [2] is “inhibited”. Further, the “Ki/Kd ratio (Ki compound's inhibitory constant, Kd Aβ-RAGE binding constant)” value at RAGE is on record as 0.45. For the same compound, on RAGE (competitive), the “inhibitory constant (Ki) of Aβ-RAGE binding” value was “low”. In the test with APPsw+/− mice, the “reduction of thioflavin-S positive areas (amyloid load) in the cortex compared to vehicle” value is given as “about 85%” and the “reduction of thioflavin-S positive areas (amyloid load) in the hippocampus compared to vehicle” value is given as “about 85%”.
